# Assays:
# P. falciparum = assay: EC50 listed in S2 Table Metabolomics (used to set the concentration tested); type: cell-based; conditions: Plasmodium falciparum; EC50 used for Factor_XEC50 in metabolomics; read-out: EC50_nM
# [1] = tested on: P. falciparum 3D7 trophozoites; assay: Metabolomic fingerprint profiling LC-MS; type: cell-based, Plasmodium falciparum; parameters: UDP-D-glucose / ADP-D-glucose: unit not given here; conditions: for Acetyllysine / N-acetyl-L-ornithine / N-carbamoyl-L-aspartate / NADPH / dAMP / dCMP / dTDP / dTMP / dTTP / dihydroorotate / orotate / DLH / DLS/SDL/SID / PD / PEE / PVNF / 3-phosphoglycerate / ADP-D-glucose / ATP / CDP / D-sedoheptulose-1/7-phosphate / FAD / GMP / NAD+ / NADP+ / Octoluse Bisphosphate / Pyroglutamic acid / UDP-D-glucose / UDP-D-glucuronate / UDP-N-acetyl-glucosamine / UDP / UMP / UTP / a-ketoglutarate / citrate/isocitrate / cytidine / dATP / dGMP/AMP / fumarate / glucose-1/6-phosphate / glycerate / guanine / guanosine / hypoxanthine / indole / inosine / nicotinate / ornithine / phosphoenolpyruvate / pyruvate / ribose-phosphate / sarcosine/alanine / sn-glycerol-3-phosphate / succinate/methylmalonic acid / uridine / xanthosine: S2 Table Metabolomics; for Acetyllysine: metabolite Acetyllysine; for N-acetyl-L-ornithine: metabolite N-acetyl-L-ornithine; for N-carbamoyl-L-aspartate: metabolite N-carbamoyl-L-aspartate; for NADPH: metabolite NADPH; for dAMP: metabolite dAMP; for dCMP: metabolite dCMP; for dTDP: metabolite dTDP; for dTMP: metabolite dTMP; for dTTP: metabolite dTTP; for dihydroorotate: metabolite dihydroorotate; for orotate: metabolite orotate; for DLH: peptide DLH; for DLS/SDL/SID: peptide DLS/SDL/SID; for PD: peptide PD; for PEE: peptide PEE; for PVNF: peptide PVNF; for 3-phosphoglycerate: metabolite 3-phosphoglycerate; for ADP-D-glucose: metabolite ADP-D-glucose; for ATP: metabolite ATP; for CDP: metabolite CDP; for CDP / D-sedoheptulose-1/7-phosphate / GMP / Octoluse Bisphosphate / UDP / UMP / UTP / citrate/isocitrate / dGMP/AMP / fumarate / glucose-1/6-phosphate / glycerate / guanine / guanosine / inosine / pyruvate / sarcosine/alanine / succinate/methylmalonic acid / uridine / xanthosine: change in metabolite level after compound treatment; for D-sedoheptulose-1/7-phosphate: metabolite D-sedoheptulose-1/7-phosphate; for FAD: metabolite FAD; for GMP: metabolite GMP; for NAD+: metabolite NAD+; for NADP+: metabolite NADP+; for Octoluse Bisphosphate: metabolite Octoluse Bisphosphate; for Pyroglutamic acid: metabolite Pyroglutamic acid; for UDP-D-glucose: metabolite UDP-D-glucose; for UDP-D-glucuronate: metabolite UDP-D-glucuronate; for UDP-N-acetyl-glucosamine: metabolite UDP-N-acetyl-glucosamine; for UDP: metabolite UDP; for UMP: metabolite UMP; for UTP: metabolite UTP; for a-ketoglutarate: metabolite a-ketoglutarate; for citrate/isocitrate: metabolite citrate/isocitrate; for cytidine: metabolite cytidine; for dATP: metabolite dATP; for dGMP/AMP: metabolite dGMP/AMP; for fumarate: metabolite fumarate; for glucose-1/6-phosphate: metabolite glucose-1/6-phosphate; for glycerate: metabolite glycerate; for guanine: metabolite guanine; for guanosine: metabolite guanosine; for hypoxanthine: metabolite hypoxanthine; for indole: metabolite indole; for inosine: metabolite inosine; for 2_3-Diphosphoglyceric acid / 4-phosphopantothenate / 6-phospho-D-gluconate / FMN / IMP / Pyrophosphate / Sedoheptoluse bisphosphate / cyclic-AMP / glutathione disulfide / lactate / myo-inositol: metabolite level change after treatment; for nicotinate: metabolite nicotinate; for ornithine: metabolite ornithine; for phosphoenolpyruvate: metabolite phosphoenolpyruvate; for pyruvate: metabolite pyruvate; for ribose-phosphate: metabolite ribose-phosphate; for sarcosine/alanine: metabolite sarcosine/alanine; for sn-glycerol-3-phosphate: metabolite sn-glycerol-3-phosphate; for succinate/methylmalonic acid: metabolite succinate/methylmalonic acid; for uridine: metabolite uridine; for xanthosine: metabolite xanthosine
compound,measurement,setting,value
COc1ccc(NC(=O)C2c3ccccc3C(=O)N(CC(C)C)C2c2cccs2)cc1 (stereo not shown) [MMV000662],EC50,P. falciparum,36.7 nM
same,Acetyllysine,[1],-4.572
same,N-acetyl-L-ornithine,[1],-3.381
same,N-carbamoyl-L-aspartate,[1],-2.466
same,NADPH,[1],2.406
same,dAMP,[1],2.2996
same,dCMP,[1],1.058
same,dTDP,[1],1.444
same,dTMP,[1],3.186
same,dTTP,[1],1.443
same,dihydroorotate,[1],-3.591
same,orotate,[1],-0.05867
same,DLH,[1],-6.2862
same,DLS/SDL/SID,[1],-4.745
same,PD,[1],-2.987
same,PEE,[1],-3.507
same,PVNF,[1],-6.642
same,3-phosphoglycerate,[1],0.247
same,ADP-D-glucose,[1],-0.1909
same,ATP,[1],-1.375
same,CDP,[1],-0.7124
same,D-sedoheptulose-1/7-phosphate,[1],-1.119
same,FAD,[1],-1.511
same,GMP,[1],-1.853
same,NAD+,[1],-0.4043
same,NADP+,[1],-0.01609
same,Octoluse Bisphosphate,[1],-2.194
same,Pyroglutamic acid,[1],0.3441
same,UDP-D-glucose,[1],-0.06213
same,UDP-D-glucuronate,[1],-0.01201
same,UDP-N-acetyl-glucosamine,[1],0.08846
same,UDP,[1],-1.277
same,UMP,[1],-0.622
same,UTP,[1],-1.315
same,a-ketoglutarate,[1],0.4405
same,citrate/isocitrate,[1],0.05797
same,cytidine,[1],0.7559
same,dATP,[1],0.06895
same,dGMP/AMP,[1],-0.6193
same,fumarate,[1],-0.1354
same,glucose-1/6-phosphate,[1],-1.428
same,glycerate,[1],-0.4765
same,guanine,[1],0.7318
same,guanosine,[1],1.459
same,hypoxanthine,[1],0.3686
same,indole,[1],0.3717
same,inosine,[1],0.5573
same,2_3-Diphosphoglyceric acid,[1],-1.11
same,4-phosphopantothenate,[1],-0.6744
same,6-phospho-D-gluconate,[1],-0.3651
same,FMN,[1],0.04988
same,IMP,[1],-0.0547
same,Pyrophosphate,[1],-1.578
same,Sedoheptoluse bisphosphate,[1],-1.096
same,cyclic-AMP,[1],-0.7789
same,glutathione disulfide,[1],-0.5026
same,lactate,[1],-0.6017
same,myo-inositol,[1],-0.9859
same,nicotinate,[1],1.185
same,ornithine,[1],0.01334
same,phosphoenolpyruvate,[1],0.5172
same,pyruvate,[1],-1.672
same,ribose-phosphate,[1],-0.9727
same,sarcosine/alanine,[1],-1.6779
same,sn-glycerol-3-phosphate,[1],0.8186
same,succinate/methylmalonic acid,[1],0.3034
same,uridine,[1],1.71
same,xanthosine,[1],-1.3795
Cc1ccc(Nc2nc(NCCO)c3ccccc3n2)cc1C [MMV001038],EC50,P. falciparum,428 nM
same,Acetyllysine,[1],-1.736
same,N-acetyl-L-ornithine,[1],-0.8338
same,N-carbamoyl-L-aspartate,[1],2.2667
same,NADPH,[1],1.133
same,dAMP,[1],0.6638
same,dCMP,[1],-0.6324
same,dTDP,[1],0.5044
same,dTMP,[1],1.028
same,dTTP,[1],-1.24
same,dihydroorotate,[1],2.22
same,orotate,[1],-0.01519
same,DLH,[1],-3.038
same,DLS/SDL/SID,[1],-1.162
same,PD,[1],-0.2116
same,PEE,[1],-5.814
same,PVNF,[1],-1.547
same,3-phosphoglycerate,[1],0.5584
same,ADP-D-glucose,[1],0.41
same,ATP,[1],-0.8212
same,CDP,[1],-0.1382
same,D-sedoheptulose-1/7-phosphate,[1],0.3347
same,FAD,[1],0.9327
same,GMP,[1],0.5554
same,NAD+,[1],0.6377
same,NADP+,[1],1.018
same,Octoluse Bisphosphate,[1],0.3963
same,Pyroglutamic acid,[1],-0.8623
same,UDP-D-glucose,[1],0.149
same,UDP-D-glucuronate,[1],0.1087
same,UDP-N-acetyl-glucosamine,[1],0.4035
same,UDP,[1],0.7043
same,UMP,[1],-0.2063
same,UTP,[1],-0.5445
same,a-ketoglutarate,[1],-0.3007
same,citrate/isocitrate,[1],-0.768
same,cytidine,[1],0.3191
same,dATP,[1],-1.248
same,dGMP/AMP,[1],0.4665
same,fumarate,[1],-0.3966
same,glucose-1/6-phosphate,[1],3.518
same,glycerate,[1],0.8355
same,guanine,[1],-0.1055
same,guanosine,[1],-0.4181
same,hypoxanthine,[1],0.2457
same,indole,[1],-0.2391
same,inosine,[1],0.4136
same,2_3-Diphosphoglyceric acid,[1],0.3981
same,4-phosphopantothenate,[1],0.7744
same,6-phospho-D-gluconate,[1],-0.4519
same,FMN,[1],0.7846
same,IMP,[1],0.7773
same,Pyrophosphate,[1],-0.6549
same,Sedoheptoluse bisphosphate,[1],0.6681
same,cyclic-AMP,[1],0.8549
same,glutathione disulfide,[1],0.7162
same,lactate,[1],1.5312
same,myo-inositol,[1],3.154
same,nicotinate,[1],-0.4211
same,ornithine,[1],-0.2093
same,phosphoenolpyruvate,[1],0.02444
same,pyruvate,[1],0.2652
same,ribose-phosphate,[1],0.4889
same,sarcosine/alanine,[1],-0.4284
same,sn-glycerol-3-phosphate,[1],0.01718
same,succinate/methylmalonic acid,[1],-0.401
same,uridine,[1],0.3457
same,xanthosine,[1],-1.776

# — article PMC4965013, “Open Source Drug Discovery with the Malaria Box Compound Collection for Neglected Diseases and Beyond” (PLoS Pathogens, 2016)
